According to ChEMBL document CHEMBL1136212, “Structure-based design of 2-arylamino-4-cyclohexylmethyl-5-nitroso-6-aminopyrimidine inhibitors of cyclin-dependent kinases 1 and 2” (Bioorg Med Chem Lett, 2003):

Experiments:
[1] = target: Cyclin-dependent kinase 2 (Homo sapiens, UniProt P24941)
[2] = target: Cyclin-dependent kinase 1 (Homo sapiens, UniProt P06493)
Cyclin-dependent kinase 1, sequence (P06493 whole entry): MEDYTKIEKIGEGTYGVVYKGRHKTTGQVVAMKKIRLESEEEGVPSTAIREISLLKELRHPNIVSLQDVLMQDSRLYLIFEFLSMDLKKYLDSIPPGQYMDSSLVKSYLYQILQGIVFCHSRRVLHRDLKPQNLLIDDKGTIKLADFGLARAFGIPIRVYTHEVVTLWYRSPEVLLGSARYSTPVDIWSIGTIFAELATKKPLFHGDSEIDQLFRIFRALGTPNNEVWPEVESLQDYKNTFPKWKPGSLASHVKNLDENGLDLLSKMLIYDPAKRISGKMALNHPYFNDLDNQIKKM
Description: Inhibition of Cyclin-dependent kinase 1 (CDK1) at 12.5 uM ATP

Nc1nc(Nc2cccc(Br)c2)nc(OCC2CCCCC2)c1N=O
IC50 [1]: 500 nM
IC50 [2]: 800 nM

COc1ccc(Nc2nc(N)c(N=O)c(OCC3CCCCC3)n2)cc1
IC50 [1]: 220 nM
IC50 [2]: 230 nM

Nc1cc(OCC2CCCCC2)nc(Nc2ccc(S(N)(=O)=O)cc2)n1
IC50 [1]: 2900 nM
IC50 [2]: 5300 nM

NC(=O)c1ccc(Nc2nc(N)cc(OCC3CCCCC3)n2)cc1
IC50 [1]: 59000 nM
IC50 [2]: 63000 nM

Nc1nc(Nc2ccc(S(N)(=O)=O)cc2)nc(OCC2CCCCC2)c1N=O
IC50 [1]: 1.1 nM
IC50 [2]: 5 nM

CSc1ccc(Nc2nc(N)c(N=O)c(OCC3CCCCC3)n2)cc1
IC50 [1]: 120 nM
IC50 [2]: 220 nM
